In brackets after ≈: the same amount, converted by molar mass. Activity calls are given as the source filed them. The rule behind the calls is not given here.
Tests used:
Staphylococcus aureus [1] = assay: Antimicrobial activity against Staphylococcus aureus ATCC6538 assessed as reduction in bacterial growth incubated for 24 hrs by two-fold broth dilution method; format: functional
Staphylococcus aureus [2] = assay: Antimicrobial activity against Staphylococcus aureus N315 assessed as reduction in bacterial growth incubated for 24 hrs by two-fold broth dilution method; format: functional
Streptomyces albus = assay: Antimicrobial activity against Streptomyces albus SHBC D11158 assessed as reduction in bacterial growth incubated for 24 hrs by two-fold broth dilution method; format: functional
[3] = Cytotoxicity against African green monkey Vero E6 cells assessed as reduction in cell viability measured after 24 hrs by CCK-8 method; format: toxicity, cell-based, Chlorocebus sabaeus, Vero C1008
[4] = Selectivity index, ratio of IC50 for African green monkey Vero E6 cells to MIC for Staphylococcus aureus ATCC6538; format: toxicity; conditions: read-out: Selectivity Index
HeLa = assay: Cytotoxicity against human HeLa cells assessed as reduction in cell viability measured after 24 hrs by CCK-8 method; format: functional, cell-based
[5] = Cytotoxicity against human HaCaT cells assessed as reduction in cell viability measured after 24 hrs by CCK-8 method; format: toxicity, cell-based
Staphylococcus aureus [6] = assay: Antimicrobial activity against methicillin resistant Staphylococcus aureus clinical isolate MRS108 assessed as reduction in bacterial growth incubated for 24 hrs by two-fold broth dilution method; format: functional
Staphylococcus aureus [7] = assay: Antimicrobial activity against methicillin resistant Staphylococcus aureus clinical isolate MRS152 assessed as reduction in bacterial growth incubated for 24 hrs by two-fold broth dilution method; format: functional
Staphylococcus aureus [8] = assay: Antimicrobial activity against methicillin resistant Staphylococcus aureus clinical isolate MRS200 assessed as reduction in bacterial growth incubated for 24 hrs by two-fold broth dilution method; format: functional
Staphylococcus aureus [9] = assay: Induction of membrane morphological changes in Staphylococcus aureus ATCC6538 assessed as cell surface wrinkling at 5 times of MIC measured after 0.5 hrs by FE-SEM analysis; format: functional, organism-based
Staphylococcus aureus [10] = assay: Induction of membrane morphological changes in Staphylococcus aureus ATCC6538 assessed as cell membrane deformation at 5 times of MIC measured after 0.5 hrs by FE-SEM analysis; format: functional, organism-based
Staphylococcus aureus [11] = assay: Induction of membrane morphological changes in Staphylococcus aureus ATCC6538 assessed as cell rupture at 5 times of MIC measured after 0.5 hrs by FE-SEM analysis; format: functional, organism-based
Cell membrane [12] = assay: Induction of Outer membrane disruption in Staphylococcus aureus ATCC6538 assessed as […] in fluorescence intensity measured upto 30 mins by NPN dye based fluorescence analysis; format: cell membranes
Cell membrane [13] = assay: Induction of inner membrane permeabilization in Staphylococcus aureus ATCC6538 assessed as increase in blue fluorescence at 5 ug/ml by DAPI staining based analysis; format: cell membranes; conditions: dose 5.0 µg/ml
Cell membrane [14] = assay: Induction of inner membrane permeabilization in methicillin resistant Staphylococcus aureus clinical isolate MRS153 assessed as increase in blue fluorescence at 5 ug/ml by DAPI staining based analysis; format: cell membranes; conditions: dose 5.0 µg/ml
Cell membrane [15] = assay: Induction of inner membrane permeabilization in Staphylococcus aureus ATCC6538 assessed as increase in red fluorescence at 5 ug/ml by PI staining based analysis; format: cell membranes; conditions: dose 5.0 µg/ml
Cell membrane [16] = assay: Induction of inner membrane permeabilization in Staphylococcus aureus ATCC6538 assessed as increase in […] fluorescence at 5 ug/ml by PI staining based analysis; format: cell membranes; conditions: dose 5.0 µg/ml
Cell membrane [17] = assay: Induction of inner membrane permeabilization in methicillin resistant Staphylococcus aureus clinical isolate MRS153 assessed as disruption of cell membrane by measuring rightward shift measured after by PI staining based flow cytometry analysis; format: cell membranes
Staphylococcus aureus [18] = assay: Bactericidal activity against methicillin-resistant Staphylococcus aureus clinical isolate MRS97 at 5 ug/ml measured upto 150 mins; format: functional, organism-based; conditions: dose 5.0 µg/ml
Staphylococcus aureus [19] = assay: Bactericidal activity against norfloxacin-resistant Staphylococcus aureus ATCC6538 at 5 ug/ml measured upto 150 mins; format: functional, organism-based; conditions: dose 5.0 µg/ml
Staphylococcus aureus [20] = assay: Antimicrobial activity against vancomycin-resistant Staphylococcus aureus assessed as reduction in bacterial growth incubated for 24 hrs by two-fold broth dilution method; format: functional
Cell membrane [21] = assay: Disruption of cell membrane integrity in Staphylococcus aureus ATCC6538 assessed as increase in fluorescence intensity at 1 to 26 times MIC measured upto 36 mins ethidium bromide uptake assay; format: cell membranes
Cell membrane [22] = assay: Disruption of cell membrane integrity in methicillin resistant Staphylococcus aureus clinical isolate MRS153 assessed as increase in fluorescence intensity at 1 to 26 times MIC measured upto 36 mins ethidium bromide uptake assay; format: cell membranes
Cell membrane [23] = assay: Induction of cytoplasmic membrane depolarization in methicillin resistant Staphylococcus aureus clinical isolate MRS153 assessed as increase in fluorescence intensity measured upto 120 mins by DiSC3(5) dye based fluorescence method; format: cell membranes
Peptidoglycan = assay: Binding affinity to Staphylococcus aureus ATCC6538 peptidoglycan assessed as change in MIC at upto 256 ug/ml measured after 22 hrs; conditions: dose <= 256.0 µg/ml
[24] = Binding affinity to Staphylococcus aureus ATCC6538 Cardiolipin assessed as dissociation constant by ITC analysis
Staphylococcus aureus [25] = assay: Antimicrobial activity against methicillin resistant Staphylococcus aureus clinical isolate MRS153 assessed as increase in ROS levels measured upto 180 mins in presence of 2,2'-bipyridyl and thiourea by H2DCFDA probe based flow cytometry; format: functional, organism-based
[26] = Toxicity in BALB/c mouse assessed as mouse death at 50 mg/kg, iv measured upto 8 days; format: organism-based; conditions: in vivo, 192 h, time < 8 day
[27] = Toxicity in BALB/c mouse assessed as effect on body weight at 50 mg/kg, iv measured upto 8 days; format: organism-based; conditions: in vivo, 192 h, time < 8 day
[28] = Toxicity in BALB/c mouse assessed as as change in AST level at 25 to 50 mg/kg, iv; format: organism-based; conditions: in vivo, dose 25-50 mg/kg
[29] = Toxicity in BALB/c mouse assessed as as effect on liver at 25 to 50 mg/kg, iv by H and E staining based analysis; format: organism-based; conditions: in vivo, dose 25-50 mg/kg
[30] = Toxicity in BALB/c mouse assessed as as effect on kidney at 25 to 50 mg/kg, iv by H and E staining based analysis; format: organism-based; conditions: in vivo, dose 25-50 mg/kg
Staphylococcus aureus [31] = assay: In vivo antibacterial activity against methicillin-resistant Staphylococcus aureus clinical isolate MRS153 infected in C57BL/6N mouse model assessed as reduction in bacterial load in heart at 3.125 to 12.5 mg/kg, iv measured after 24 hrs; format: functional, organism-based; conditions: dose 3.125-12.5 mg/kg
Staphylococcus aureus [32] = assay: In vivo antibacterial activity against methicillin-resistant Staphylococcus aureus clinical isolate MRS153 infected in C57BL/6N mouse model assessed as reduction in bacterial load in kidney at 3.125 to 12.5 mg/kg, iv measured after 24 hrs; format: functional, organism-based; conditions: dose 3.125-12.5 mg/kg
Staphylococcus aureus [33] = assay: In vivo antibacterial activity against methicillin-resistant Staphylococcus aureus clinical isolate MRS153 infected in C57BL/6N mouse model assessed as reduction in bacterial load in spleen at 3.125 to 12.5 mg/kg, iv measured after 24 hrs; format: functional, organism-based; conditions: dose 3.125-12.5 mg/kg
Staphylococcus aureus [34] = assay: Antibacterial activity against methicillin-resistant Staphylococcus aureus clinical isolate MRS153 infected in C57BL/6N mouse model assessed as infiltration of inflammatory cells at 3.125 to 12.5 mg/kg, iv; format: functional, organism-based; conditions: dose 3.125-12.5 mg/kg
Staphylococcus aureus [35] = assay: Antibacterial activity against methicillin-resistant Staphylococcus aureus clinical isolate MRS153 infected in C57BL/6N mouse model assessed as reversal of cell morphology to normal state at 3.125 to 12.5 mg/kg, iv; format: functional, organism-based; conditions: dose 3.125-12.5 mg/kg

Question: With `O=C(CCC(F)(F)F)N(Cc1cc2ccccc2s1)c1cc(-c2noc(C(F)(F)F)n2)ccc1O` as the compound, how does the MIC (Staphylococcus aureus [1]) read?
Answer: The MIC was 0.25 µg/mL (≈ 0.485 µM).

Question: What about the MIC (Staphylococcus aureus [2]) of the same compound?
Answer: Its MIC is 0.25 µg/mL (≈ 0.485 µM).

Question: And the MIC (Streptomyces albus)?
Answer: The MIC was less than 0.5 µg/mL.

Question: And the IC50 at 24 h [3]?
Answer: The IC50 at 24 h was greater than 25 µg/mL.

Question: What about the selectivity ratio [4] of the same compound?
Answer: Its selectivity ratio is greater than 100.

Question: What about the IC50 (HeLa) of the same compound?
Answer: The IC50 was greater than 25 µg/mL.

Question: What about the IC50 at 24 h [5] of the same compound?
Answer: Its IC50 at 24 h is greater than 25 µg/mL.

Question: And the MIC (Staphylococcus aureus [6])?
Answer: The MIC was 1 µg/mL (≈ 1.94 µM).

Question: What about the MIC (Staphylococcus aureus [7]) of the same compound?
Answer: Its MIC is 1 µg/mL (≈ 1.94 µM).

Question: What about the MIC (Staphylococcus aureus [8]) of the same compound?
Answer: Its MIC is 2 µg/mL (≈ 3.88 µM).

Question: What about the Activity (Staphylococcus aureus [9]) of the same compound?
Answer: The Activity was “Active”.

Question: And the Activity (Staphylococcus aureus [10])?
Answer: The Activity was “Active”.

Question: What about the Activity (Staphylococcus aureus [11]) of the same compound?
Answer: Its Activity is “Active”.

Question: What about the Activity (Cell membrane [12]) of the same compound?
Answer: Its Activity is “Dose-Dependent Effect”.

Question: And the Activity (Cell membrane [13])?
Answer: The Activity was “Active”.

Question: And the Activity (Cell membrane [14])?
Answer: Its Activity is “Active”.

Question: And the Activity (Cell membrane [15])?
Answer: Its Activity is “Active”.

Question: What about the Activity (Cell membrane [16]) of the same compound?
Answer: Its Activity is “Active”.

Question: What about the Activity (Cell membrane [17]) of the same compound?
Answer: The Activity was “Active”.

Question: What about the Activity (Staphylococcus aureus [18]) of the same compound?
Answer: Its Activity is “Active”.

Question: And the Activity (Staphylococcus aureus [19])?
Answer: The Activity was “Active”.

Question: And the MIC (Staphylococcus aureus [20])?
Answer: The MIC was 0.5 µg/mL (≈ 0.97 µM).

Question: And the Activity (Cell membrane [21])?
Answer: The Activity was “Active”.

Question: What about the Activity (Cell membrane [22]) of the same compound?
Answer: The Activity was “Active”.

Question: What about the Activity (Cell membrane [23]) of the same compound?
Answer: Its Activity is “Active”.

Question: What about the Activity (Peptidoglycan) of the same compound?
Answer: Its Activity is “inactive”.

Question: What about the Kd [24] of the same compound?
Answer: The Kd was 5.75 µM.

Question: What about the Activity (Staphylococcus aureus [25]) of the same compound?
Answer: Its Activity is “inactive”.

Question: What about the Activity [26] of the same compound?
Answer: The Activity was “Non-Toxic”.

Question: And the Activity [27]?
Answer: The Activity was “Non-Toxic”.

Question: And the Activity [28]?
Answer: Its Activity is “Non-Toxic”.

Question: And the Activity [29]?
Answer: Its Activity is “Non-Toxic”.

Question: What about the Activity [30] of the same compound?
Answer: Its Activity is “Non-Toxic”.

Question: And the Activity (Staphylococcus aureus [31])?
Answer: Its Activity is “Active”.

Question: What about the Activity (Staphylococcus aureus [32]) of the same compound?
Answer: Its Activity is “Active”.

Question: And the Activity (Staphylococcus aureus [33])?
Answer: The Activity was “Active”.

Question: And the Activity (Staphylococcus aureus [34])?
Answer: The Activity was “Active”.

Question: And the Activity (Staphylococcus aureus [35])?
Answer: Its Activity is “Active”.

From ChEMBL document CHEMBL5537201, “Discovery of Unique Bis-Substituted Aromatic Amide Derivatives as Novel Highly Potent Antibiotics for Combating Methicillin-Resistant Staphylococcus aureus (MRSA)” (J Med Chem, 2024)
